Data on 1 substance can be found in patent publication US20210113650A1, “NANOMOLECULES FOR THE TREATMENT OF INFLAMMATORY BOWEL DISEASES” (Northwestern University, priority 2018, published 2021).

What all share (assay type): in vivo, mouse
The subject of assay [1] is SAMP1/YitFcsJ mice (Crohn's mice). As to the kind of experiment: Cell/marker and cytokine expression in intestinal tissue after direct injection into inflamed intestinal lesions. The settings on record: 5 weeks post-surgery, compared to AIF-PAC and saline injected control animals. On the procedure:
(§1) In order to treat inflammatory lesions that have formed in the intestinal tracts, the following was performed:
(§2) Mice (10 weeks of age, female) were brought to the operating room where they were weighed, the abdomen shaved to remove hair, and given Buprenorphine (0.05 mg/kg) administered subcutaneously. At the time of surgery, anesthesia was induced with isoflurane (2%) with 02 and the mice were prepped with providine-iodine three times prior to initiating the operation. All mice received a 100 mg/kg dose of IP piperacillin/tazobactam IP followed by a midline abdominal incision (1.0-1.5 cm) made in the linea albea to gain access to the peritoneum. The intestines were then identified in the peritoneal cavity. Following intestinal exposure and identification of intestinal lesions, the anti-inflammatory peptide amphiphiles, [AIF-PA1 (treatment; 2 wt/%) or AIF-PAC (control; 2 wt/%)] or saline (control) were independently injected (20-40 μl) into multiple lesions of the several SAMP1/YitFcsJ mice. Following the surgical procedure, organs were relocated to their original anatomical positions. The abdomen was closed in 2 layers (muscle and skin) with 3-0 PDS suture. After recovery, they were placed back into cages with non-edible bedding and provided ad lib water and liquid diet for the first 7 post-operative days and then returned to ad lib chow. Animals were sacrificed at the 15 weeks of age. Animals were euthanized 5 weeks post-surgery and intestinal tissue was explanted, sectioned and stained with relevant inflammation based antibodies. Tissue samples were subsequently quantified, and the results are depicted in FIGS. 1-3.

For assay [2] the test system is unchanged. As to the kind of experiment: Inflammatory intestinal lesion size after direct injection into inflamed intestinal lesions. Conditions: 5 weeks post-injection, pre- versus post-injection, compared to AIF-PAC and saline injected control animals. On the procedure:
as §1
as §2, with “After recovery, they were placed back into cages with non-edible bedding and provided ad lib water and liquid diet for the first 7 post-operative days and then returned to ad lib chow. Animals were sacrificed at the 15 weeks of age. Animals were euthanized 5 weeks post-surgery and intestinal tissue was explanted, sectioned and stained with relevant inflammation based antibodies.” left out

Assay [3] has the same test system. As to the kind of experiment: Cell/marker and cytokine expression in intestinal tissue after systemic (tail vein) injection. The settings on record: 5 weeks, compared to AIFC-PA6/LDT and untreated control animals. How it is done: as §1
Mice (10 weeks of age, female; n=4-7 per group) were brought to the animal holding/surgical room where they were weighed. Animals were placed in a restrainer and independently injected with the aforementioned anti-inflammatory peptide amphiphiles, [AIF-PA1/LDT (treatment; 1 mM) or AIFC-PA6/LDT (control; 1 mM] or untreated/no treatment control group. Approximately 100 μl of solution was injected into the tail vein of the mice. Animals were sacrificed at the 15 weeks of age. Animals were euthanized 5 weeks post-surgery and intestinal tissue was explanted, sectioned and stained with relevant inflammation based antibodies and data was quantified. Gross tissue samples were examined for pathology. Quantified data and results are summarized in FIGS. 4-6.

*: point of attachment. Palmitoyl = CCCCCCCCCCCCCCCC(=O)*

Turning to “C16-VVVAAAEEEMQMKKVLDS (Palmitoyl-VVVAAAEEEMQMKKVLDS-NH2; SMILES CCCCCCCCCCCCCCCC(=O)N[C@H](C(=O)N[C@H](C(=O)N[C@H](C(=O)N[C@@H](C)C(=O)N[C@@H](C)C(=O)N[C@@H](C)C(=O)N[C@@H](CCC(=O)O)C(=O)N[C@@H](CCC(=O)O)C(=O)N[C@@H](CCC(=O)O)C(=O)N[C@@H](CCSC)C(=O)N[C@@H](CCC(N)=O)C(=O)N[C@@H](CCSC)C(=O)N[C@@H](CCCCN)C(=O)N[C@@H](CCCCN)C(=O)N[C@H](C(=O)N[C@@H](CC(C)C)C(=O)N[C@@H](CC(=O)O)C(=O)N[C@@H](CO)C(N)=O)C(C)C)C(C)C)C(C)C)C(C)C) [AIF-PA1]”, in assay [1] (2 wt/%, 20-40 μl), the “CD68 (macrophages) expression” value was “statistically significant decrease”, the MAdCAM1 expression result is “statistically significant decrease”, the “anti-inflammatory cytokine IL-10 expression” value is recorded as “concomitant increase” and the “mast cell tryptase (mast cells) expression” value is given as “statistically significant decrease”. Also, in assay [1], the IFNγ expression result is listed as “statistically significant decrease”, the IL-1β expression entry is “statistically significant decrease”, the IL-13 expression entry is listed as “statistically significant decrease” and the TNFα expression result is recorded as “statistically significant decrease”. Further, in assay [2], the “change in intestinal lesion size” value is “statistically significant decrease”. In addition, in assay [3], the IFNγ expression entry was “statistically significant decrease”, the IL-1β expression result is “statistically significant decrease”, the IL-13 expression result was “statistically significant decrease” and the TNFα expression entry is “statistically significant decrease”.
